Test results published in patent US20260083865A1, “PROSTATE SPECIFIC MEMBRANE ANTIGEN (PSMA) LIGANDS AND USE THEREOF” (priority 2022, published 2026).
Where two headings read alike, the source gives them in different places. Numbered stars: 1 amine (or outer) side, 2 acyl side, 3 side chain; on linkers, the order of the positions; unused ones are H or OH. Bridge positions count the residues as written; N and C are the ends. Square brackets hold non-standard residues; d marks the D form. Peptide text beside a SMILES is read from it. * marks the point of attachment. X18 = O=C(O)c1cccc(CN2CCOCCOCCN(Cc3cc(N*)cc(C(=O)O)n3)CCOCCOCC2)n1; DOTA = O=C(O)CN1CCN(CC(=O)O)CCN(CC(=O)*)CCN(CC(=O)O)CC1; Trp(5-Cl) = N[C@@H](Cc1c[nH]c2ccc(Cl)cc12)C(=O)O; Phe(4-Cl) = N[C@@H](Cc1ccc(Cl)cc1)C(=O)O; Arg(Me) = CNC(=N)NCCC[C@H](N)C(=O)O; Ethylenediamine = C(CN[*:2])N[*:1]; Glutaryl = O=C(CCCC(=O)[*:2])[*:1]; Isobutyryl(2-OH) = CC(C)(O)C(=O)*; X1 = O=C(CC1CCN([*:1])CC1)[*:2]; Cit = NC(=O)NCCC[C@H](N)C(=O)O; Lys(Me) = CNCCCC[C@H](N)C(=O)O; Tle = CC(C)(C)[C@H](N)C(=O)O; Aib = CC(C)(N)C(=O)O

Experiments:
[1] = target: T1, PSMA-expressing C4-2 cells (Homo sapiens, UniProt Q04609); assay: FACS binding assay (competition with 50 nM PSM-0183); conditions: C4-2 cells, read-out: pIC50 [C4-2] CAT (converted)
T1 construct: PSMA-expressing C4-2 cells (ATCC, Cat. No. CRL-3314) were cultured in RPMI-1640; host or cells: C4-2 cells
T1 sequence (Q04609 whole entry): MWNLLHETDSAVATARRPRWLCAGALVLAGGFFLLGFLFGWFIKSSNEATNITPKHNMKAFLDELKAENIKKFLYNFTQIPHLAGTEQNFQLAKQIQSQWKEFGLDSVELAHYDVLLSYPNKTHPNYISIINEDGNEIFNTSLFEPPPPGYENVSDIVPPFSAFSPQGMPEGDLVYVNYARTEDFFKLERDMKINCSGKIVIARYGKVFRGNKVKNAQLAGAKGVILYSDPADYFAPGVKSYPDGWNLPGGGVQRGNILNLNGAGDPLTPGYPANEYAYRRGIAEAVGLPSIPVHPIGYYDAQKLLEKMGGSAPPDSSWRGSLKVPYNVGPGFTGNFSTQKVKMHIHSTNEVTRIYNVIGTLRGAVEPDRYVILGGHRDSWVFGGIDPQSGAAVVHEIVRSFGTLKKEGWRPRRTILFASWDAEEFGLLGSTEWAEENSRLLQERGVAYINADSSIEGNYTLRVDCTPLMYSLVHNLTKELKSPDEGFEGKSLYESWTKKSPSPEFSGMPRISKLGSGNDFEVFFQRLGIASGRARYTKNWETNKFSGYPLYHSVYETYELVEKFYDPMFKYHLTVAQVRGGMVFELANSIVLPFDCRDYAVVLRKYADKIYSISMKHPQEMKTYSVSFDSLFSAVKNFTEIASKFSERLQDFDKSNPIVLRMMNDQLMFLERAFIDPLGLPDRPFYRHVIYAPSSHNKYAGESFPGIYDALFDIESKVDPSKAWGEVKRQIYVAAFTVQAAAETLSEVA
Procedure: In order to determine binding of compounds according to the present invention to PSMA-expressing cells, a FACS binding assay was established.
PSMA-expressing C4-2 cells (ATCC, Cat. No. CRL-3314) were cultured in RPMI-1640 (Pan Biotech, Cat. No. P04-18050) including 10% fetal calf serum (Biochrom) and 100 U/ml penicillin and 100 μg/mL streptomycin (Sigma, Cat. No. P0781). Cells were detached with Accutase (Biolegend, Cat. No. BLD-423201) and washed in FACS buffer (PBS (Sigma, Cat. No. D8537) including 1% fetal calf serum). Cells were diluted in FACS buffer to a final concentration of 500,000 cells per mL. 200 μL of the cell suspension were transferred to a u-shaped non-binding 96-well plate (Greiner Bio-One, Cat. No. 650901) and cells were washed in ice-cold FACS buffer.
For IC50 determination, C4-2 cells were incubated with 50 nM PSM-0183 (Ac-Thr-Aib-Phe[Cys-Lys-Arg-Aib-Asn-Cys]-Tle-Thr-Asp-Ttds-Ttds-AF488N3K-NH2) in the presence of increasing concentrations of test compounds at 4° C. for 1 hour. After two wash steps with ice-cold FACS buffer, cells were analyzed in an Attune NxT flow cytometer. Median fluorescence intensities (MFI) of the FITC/AF488-channel were calculated by Attune NxT software. MFI values were plotted against peptide concentration and four parameter logistic (4PL) curve fitting and IC50/pIC50 calculations were performed using ActivityBase software (IDBS).

[2] = target: T2, Fc-fusion protein of human PSMA (hPSMA-Fc) (Homo sapiens, UniProt Q04609); assay: Surface plasmon resonance assay (Biacore T200, single cycle kinetic); assay type: binding; conditions: hPSMA-Fc, 25° C., read-out: pKD CAT (converted)
T2 construct: purchased Acro Biosystems PSA-H5264
T2 sequence (Q04609 44-750 limits assumed): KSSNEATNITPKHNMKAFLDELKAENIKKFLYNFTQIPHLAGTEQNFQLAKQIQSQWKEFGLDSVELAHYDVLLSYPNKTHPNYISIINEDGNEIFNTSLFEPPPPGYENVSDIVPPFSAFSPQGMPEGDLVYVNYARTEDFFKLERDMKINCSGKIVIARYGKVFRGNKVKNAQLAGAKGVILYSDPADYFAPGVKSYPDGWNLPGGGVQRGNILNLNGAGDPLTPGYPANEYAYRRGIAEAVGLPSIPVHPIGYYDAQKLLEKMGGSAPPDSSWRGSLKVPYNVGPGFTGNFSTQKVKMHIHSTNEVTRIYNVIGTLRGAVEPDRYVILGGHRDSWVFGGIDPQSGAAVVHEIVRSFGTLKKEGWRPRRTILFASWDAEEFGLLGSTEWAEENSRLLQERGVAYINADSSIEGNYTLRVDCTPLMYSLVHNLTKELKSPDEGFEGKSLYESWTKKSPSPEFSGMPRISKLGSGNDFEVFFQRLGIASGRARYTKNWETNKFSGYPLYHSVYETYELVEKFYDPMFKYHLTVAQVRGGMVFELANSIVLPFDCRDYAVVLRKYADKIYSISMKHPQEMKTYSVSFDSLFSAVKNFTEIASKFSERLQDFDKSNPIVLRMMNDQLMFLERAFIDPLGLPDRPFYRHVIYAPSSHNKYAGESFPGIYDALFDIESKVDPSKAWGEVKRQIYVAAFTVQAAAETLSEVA
Procedure: Surface plasmon resonance (SPR) studies were performed using a Biacore™ T200 SPR system. Briefly, polarized light is directed towards a gold-labeled sensor surface, and minimum intensity reflected light is detected. The angle of reflected light changes as molecules bind and dissociate.
Fc-fusion protein of human PSMA (hPSMA-Fc, Acro Biosystems, Cat #PSA-H5264) was captured on a Fc-capture chip (Biacore™ CM5 sensor chip coated with ˜300 RU of an Fc-binding peptide). hPSMA-Fc was diluted in Running Buffer (HBST, 0.1% DMSO) to a final concentration of 100 nM and then flushed over the Fc-capture chip to immobilized ˜1000 RUs.
Stock solutions of test compounds were prepared by dissolving each compound in DMSO. DMSO stock solution were diluted 1:1000 in Running Buffer without DMSO. Further sequential dilutions were made with Running Buffer containing 0.1% DMSO. SPR binding analyses were performed in Single Cycle Kinetic (SCK) mode at 25° C. Flow cell coated with the Fc-binding peptide only served as reference flowcell. After each SCK run, hPSMA-Fc was removed with 10 mM glycine buffer, pH 1.5.
In between every three SCK measurements, a blank run with Running Buffer instead of test compound was included to correct for baseline drifts (double blanking method).
Table 5 describes the protocol steps for Fc-fusion target capturing and assessment of the binding kinetics.
For each test compound, SPR raw data in the form of resonance units (RU) were plotted as sensorgrams using the Biacore™ T200 control software. The signal from the blank sensorgram was subtracted from that of the test compound sensorgram (blank corrected). The blank corrected sensorgram was corrected for baseline drift by subtracting the sensorgram of a SCK run without the test compound (running buffer only). The dissociation constant (KD) was calculated from Blank-normalized SPR data using the 1:1 Langmuir binding model from the Biacore™ Insight Evaluation software. The pKD value (negative decadic logarithm of dissociation constant) was calculated using Microsoft Excel.

[3] = pKD category for PSMA SPR activity assay
[4] = SPR, single cycle kinetic, category

SMILES | IC50 ([1]; pIC50 category of FACS binding) | Kd [2, 3] | IC50 ([1]; FACS binding, competition with 50 nM PSM-0183, category) | Kd [2, 4]
C[C@@H](O)[C@H](NC(=O)[C@@H](NC(=O)[C@@H]1CSSC[C@H](NC(=O)[C@H](Cc2c[nH]c3ccc(Cl)cc23)NC(=O)C(C)(C)NC(=O)[C@@H](NC(=O)CC2CCN(C(=O)CN3CCN(CC(=O)O)CCN(CC(=O)O)CCN(CC(=O)O)CC3)CC2)[C@@H](C)O)C(=O)N[C@@H](CCCCN)C(=O)N[C@@H](CCCNC(N)=O)C(=O)NC(C)(C)C(=O)N[C@@H](CC(N)=O)C(=O)N1)C(C)(C)C)C(N)=O [PSM-0406, DOTA-Cmp-Thr-Aib-5Clw-[Cys-Lys-Cit-Aib-Asn-Cys]-Tle-Thr-NH2] ({DOTA}-[X1]T[Aib][Trp(5-Cl)]CK[Cit][Aib]NC[Tle]T-NH2; disulfide 5-10) | 1260 to 3160 nM | > 501 nM | – | –
C[C@@H](O)[C@H](NC(=O)[C@@H](NC(=O)[C@@H]1CSSC[C@H](NC(=O)[C@H](Cc2ccc(Cl)cc2)NC(=O)C(C)(C)O)C(=O)N[C@@H](CCCCN)C(=O)N[C@@H](CCCNC(=N)N)C(=O)NC(C)(C)C(=O)N[C@@H](CC(N)=O)C(=O)N1)C(C)(C)C)C(N)=O [PSM-0461, Hib-Pcf-[Cys-Lys-Arg-Aib-Asn-Cys]-Tle-Thr-NH2] ({Isobutyryl(2-OH)}-[Phe(4-Cl)]CKR[Aib]NC[Tle]T-NH2; disulfide 2-7) | < 200 nM | 12.6 to 126 nM | – | –
C[C@@H](O)[C@H](NC(=O)CN1CCN(CC(=O)O)CCN(CC(=O)O)CCN(CC(=O)O)CC1)C(=O)NC(C)(C)C(=O)N[C@@H](Cc1ccc(Cl)cc1)C(=O)N[C@H]1CSSC[C@@H](C(=O)N[C@H](C(=O)NCCN)C(C)(C)C)NC(=O)[C@H](CC(N)=O)NC(=O)C(C)(C)NC(=O)[C@H](CCCNC(=N)N)NC(=O)[C@H](CCCCN)NC1=O [PSM-0222, DOTA-Thr-Aib-Pcf-[Cys-Lys-Arg-Aib-Asn-Cys]-Tle-en] ({DOTA}-T[Aib][Phe(4-Cl)]CKR[Aib]NC[Tle]-Ethylenediamine; disulfide 4-9) | – | – | < 200 nM | < 12.6 nM
CSCC[C@@H]1NC(=O)C(C)(C)NC(=O)[C@H](CCCNC(N)=O)NC(=O)[C@H](CCCCN)NC(=O)[C@@H](NC(=O)[C@H](Cc2ccc(Cl)cc2)NC(=O)C(C)(C)NC(=O)[C@@H](NC(C)=O)[C@@H](C)O)CSSC[C@@H](C(=O)N[C@H](C(=O)N[C@H](C(N)=O)[C@@H](C)O)C(C)(C)C)NC1=O [PSM-0229, Ac-Thr-Aib-Pcf-[Cys-Lys-Arg-Aib-Met-Cys]-Tle-Thr-NH2] (Ac-T[Aib][Phe(4-Cl)]CK[Cit][Aib]MC[Tle]T-NH2; disulfide 4-9) | – | – | – | < 12.6 nM
CNCCCC[C@@H]1NC(=O)[C@@H](NC(=O)[C@H](Cc2ccc(Cl)cc2)NC(=O)C(C)(C)NC(=O)[C@@H](NC(=O)CC2CCN(C(=O)CCCC(=O)Nc3cc(CN4CCOCCOCCN(Cc5cccc(C(=O)O)n5)CCOCCOCC4)nc(C(=O)O)c3)CC2)[C@@H](C)O)CSSC[C@@H](C(=O)N[C@H](C(=O)N[C@H](C(N)=O)[C@@H](C)O)C(C)(C)C)NC(=O)[C@H](CC(N)=O)NC(=O)C(C)(C)NC(=O)[C@H](CCCNC(=N)NC)NC1=O [PSM-0515, Macropa-Cmp-Thr-Aib-Pcf-[Cys-Lys(Me)-Arg(Me)-Aib-Asn-Cys]-Tle-Thr-NH2] ({X18-Glutaryl}-[X1]T[Aib][Phe(4-Cl)]C[Lys(Me)][Arg(Me)][Aib]NC[Tle]T-NH2; disulfide 5-10) | < 200 nM | – | – | –
